We go through one compound from patent US10954235B2, “Crystalline forms of valbenazine salts” (Sandoz AG, priority 2017, dated 2021).

The data set can be described thus: Differential scanning calorimetry (DSC), thermal stability. It counts as physicochemical. Particulars: heating rate 10 K/min; judged from first endotherm. How it is done: Differential scanning calorimetry (DSC) was performed with a DSC 7 (Perkin-Elmer, Norwalk, Conn., USA) using a Pyris 2.0 software. 4.7307±0.0005 mg sample (using a UM3 ultramicrobalance, Mettler, Greifensee, CH) were weighed into Al-Pans (25 microliter) and sealed with a cover, which was perforated by a needle. The sample was heated at a rate of 10 K/min. Dry nitrogen was used as the purge gas (purge rate: 20 mL/min). Differential scanning calorimetry (DSC) was performed with a DSC 7 (Perkin-Elmer, Norwalk, Conn., USA) using a Pyris 2.0 software. 7.115±0.0005 mg sample (using a UM3 ultramicrobalance, Mettler, Greifensee, CH) were weighed into Al-Pans (25 microliter) and sealed with a cover, which was perforated by a needle. The sample was heated at a rate of 10 K/min. Dry nitrogen was used as the purge gas (purge rate: 20 mL/min).

Each structure is given as a SMILES string.

Consider `COc1cc2c(cc1OC)[C@H]1C[C@@H](OC(=O)[C@@H](N)C(C)C)[C@H](CC(C)C)CN1CC2` [Example 1, ((S)-(2R,3R,11bR)-3-isobutyl-9,10-dimethoxy-2,3,4,6,7,11b-hexahydro-1H-pyrido[2,1-a]isoquinolin-2-yl 2-amino-3-methylbutanoate) ditosylate], for which the “stability against temperature stress (DSC)” value is “very stable against temperature stress”.
